In general, inhibition refers to the change of the read-out against control, counted positive when it falls.

From patent US6127392A, “Anthranilic acid analogs” (American Home Products Corporation, priority 1998, dated 2000) come the findings set out here.

Test [1] deals with Isolated Rat Bladder Strips. The experiment in a line: Inhibition of contractions in isolated rat bladder strips. The format is cell-based. Here is the method:
Sprague-Dawley rats (150-200 g) are rendered unconscious by CO2 asphyxiation and then euthanized by cervical dislocation. […] The bladder is opened and then cut into strips 1-2 mm in width and 7-10 mm in length. The strips are subsequently suspended in a 10 mL tissue bath under an initial resting tension of 1.5 g. The strips are held in place by two surgical clips one of which is attached to a fixed hook while the other is attached to an isometric force transducer. […] The carbachol is then washed out and the tissue allowed to relax to its resting level of activity. Following a further 30 min period of recovery an additional 15 mM KCl are introduced into the tissue bath. […] Following stabilization of this enhanced level of contractile activity, incremental increases in the concentration of test compound or vehicle are introduced into the tissue bath. Contractile activity is measured for each compound or vehicle concentration during the last minute of a 30 minute challenge.

Test [2] has as its system swelling induced chloride channel current. The experiment in a line: Chloride channel blockade, swelling induced chloride current in bladder cells. In kind it is cell-based, guinea pig. The text has this:
Normal human bronchial epithelial cells (NHBE) were commercially available from Clonetics Corporation (San Diego, Calif.) and bladder cells were isolated from rat bladder.
The normal external solution contained (in mM): N-methyl d-Glucamine chloride (NMDGCl). 140, MgCl2 2, CaCl2 2 and 4-(2-hydroxyethyl)-1-piperazine ethanesulfonic acid (HEPES) 10. The normal pipette solution contained (in mM): NMDGCI. 125, HEPES 10, MgCl2 2, ethylenebis(oxonitrilo)tetraacetate (EGTA) 2, and ATPMg 5, the pH adjusted to 7.3 with TRIS. To identify the leak conductance from depolarization, internal Cl ion concentration was reduced to 40 mM using glutamic acid (ECl approximately -31 mV according Nernst equation). The osmolarity for standard external solution was about 280 mOsm. […]
The whole cell voltage clamp recording techniques were utilized to record membrane ionic currents. […] Membrane currents were recorded using an Axopatch 200A Patch Clamp Amplifier (Axon Instruments, Inc., Foster City, Calif.). […]
A: current traces from -100 to 60 mV were recorded in the isotonic, low osmolarity (210 mOsm) and after application of 20 μM Example 1 in same cell. […] Panel B is four superimposed ramp test traces recorded in the presence of control, hypotonic, Example 1 and washout solutions. The C panel depicts the time course of the effect of Example 1 on ICl,swelling at 60 mV monitored from the same cell.

The target in test [3] is T1, calcium-dependent large conductance potassium channels (maxi K^+) (Rattus norvegicus, UniProt Q62976).
T1 construct: Rat detrusor cells were isolated in a manner previously described for guinea-pig detrusor; from tissue; host or cells: freshly isolated detrusor smooth muscle cells from urinary bladder dome of male Sprague-Dawley rats (endogenous channel)
T1 sequence (Q62976 whole entry): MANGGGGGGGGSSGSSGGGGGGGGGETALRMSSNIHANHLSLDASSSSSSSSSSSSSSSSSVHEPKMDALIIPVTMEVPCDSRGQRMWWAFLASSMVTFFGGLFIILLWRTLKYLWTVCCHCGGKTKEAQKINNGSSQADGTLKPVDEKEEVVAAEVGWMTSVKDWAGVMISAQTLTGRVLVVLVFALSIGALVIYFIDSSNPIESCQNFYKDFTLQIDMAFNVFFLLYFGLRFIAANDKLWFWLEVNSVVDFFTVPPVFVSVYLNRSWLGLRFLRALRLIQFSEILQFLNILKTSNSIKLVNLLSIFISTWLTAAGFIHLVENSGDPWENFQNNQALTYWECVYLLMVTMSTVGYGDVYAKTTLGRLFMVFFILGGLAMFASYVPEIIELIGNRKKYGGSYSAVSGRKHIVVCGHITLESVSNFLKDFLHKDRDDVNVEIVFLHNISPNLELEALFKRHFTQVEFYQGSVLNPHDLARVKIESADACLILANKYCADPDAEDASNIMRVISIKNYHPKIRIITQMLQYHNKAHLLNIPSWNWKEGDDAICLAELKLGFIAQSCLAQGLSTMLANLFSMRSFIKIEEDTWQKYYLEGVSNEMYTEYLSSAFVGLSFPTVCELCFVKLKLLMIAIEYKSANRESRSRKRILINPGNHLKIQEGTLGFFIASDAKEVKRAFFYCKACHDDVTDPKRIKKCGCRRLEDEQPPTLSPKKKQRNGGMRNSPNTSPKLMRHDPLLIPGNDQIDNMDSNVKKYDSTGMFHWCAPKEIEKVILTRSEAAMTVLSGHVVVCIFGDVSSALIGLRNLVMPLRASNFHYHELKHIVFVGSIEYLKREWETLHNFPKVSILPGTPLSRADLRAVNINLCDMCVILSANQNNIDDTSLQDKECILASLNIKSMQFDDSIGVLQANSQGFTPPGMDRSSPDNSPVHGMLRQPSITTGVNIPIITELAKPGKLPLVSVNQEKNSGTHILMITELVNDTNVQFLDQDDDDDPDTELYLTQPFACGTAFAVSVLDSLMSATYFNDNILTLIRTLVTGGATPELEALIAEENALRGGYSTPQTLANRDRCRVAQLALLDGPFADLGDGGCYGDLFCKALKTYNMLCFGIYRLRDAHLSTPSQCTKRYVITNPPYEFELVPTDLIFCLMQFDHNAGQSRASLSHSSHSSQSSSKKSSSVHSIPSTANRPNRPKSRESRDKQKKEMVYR
The experiment in a line: Potassium channel activation, whole cell patch clamp in isolated rat detrusor cells. In kind it is cell-based. The method, then: Potassium channel activation by compounds of the present invention was established by examining the effect of the compound of Example 1 on calcium-dependent large conductance potassium channels (maxi K^+) as follows:
Rat detrusor cells were isolated in a manner previously described for guinea-pig detrusor (Sheldon and Argentieri, 1995). Male Sprage-Dawley rats (200-400 grams) were euthanized by CO2 inhalation and exsanguination. Their urinary bladders were rapidly removed and placed in 37° C. physiological solution with the following composition (mM): Na glutamate (80.0), NaCl (54.7), KCl (5.0), NaHCO3 (25.0), MgCl2.2H2 O (2.5), D-glucose (11.8) and CaCl2 (0.2) gassed with […], 95%/5% for a final pH of 7.4. The dome of the bladder was isolated from the trigon region and the mucosa was removed. This tissue was then cut into 2-3 mm wide strips and placed in fresh buffer for 1 hour. Tissues were then transferred into 10.0 ml of an isolation buffer containing the above composition plus collagenase type VIII (1.0 mg/ml) and pronase (0.25 mg/ml). After 10 minutes the isolation buffer was replaced with fresh isolation buffer for an additional 10 min. […]
Whole cell recordings were made using broken patch assess. […] After stability was achieved control currents were recorded. […] Currents were recorded for 5 to 10 minutes or until compound effects reached steady state. […]
For orientation: In patch-clamp work, channel activity is measured electrically.

For `C/C(=C\c1ccc(C(F)(F)F)cc1)C(=O)Nc1ccccc1C(=O)O` [1, Step 4], the “IC50 (A)/IC50 (B)” value in test [1] (aorta/bladder IC50 ratio, selectivity) is 39.6. `C/C(=C\c1ccc(C(F)(F)F)cc1)C(=O)Nc1ccccc1C(=O)[O-].[Li+]` [Example 1, Step 4, (E)-2-[2-Methyl-3-(4-trifluoromethyl-phenyl)-acryloylamino]-benzoic acid lithium salt]: in test [2] (20 μM, guinea pig bladder cell, low osmolarity 210 mOsm), the “effect on swelling induced chloride current” value was “significantly reduced swelling induced chloride current”. Also, the inhibition at 20 µM in test [2] (Cavia porcellus, Bladder, Swelling ICl, 60 mV, 210 mOsm) came to 67%. The “effect on outward current (maxi K^+ current)” value in test [3] (10 μM in superfusate, isolated rat bladder cells) was “increase in outward current that was reversible upon washout”. As for `COc1ccc(/C=C/C(=O)Nc2ccccc2C(=O)O)cc1OC` [Tranilast, reference compound], in test [1] (bladder/aorta IC50 ratios, Table 1), the “smooth muscle relaxant potency and bladder selectivity” value was “not to be a potent or bladder selective smooth muscle relaxant”. Turning to `COc1ccc(Cl)cc1C(=O)NCCc1ccc(S(=O)(=O)NC(=O)NC2CCCCC2)cc1` [glyburide, reference compound], the “effect of glyburide on outward current” value in test [3] (glyburide 5 μM added to the superfusate) is recorded as “no effect”.
